{"source": "patent US20060234945A1", "about": "“Ophthalmic therapeutic composition” (Nihon Tenganyaku Kenkyusho Co., LTD., priority 2002, published 2006)", "key": {"[1]": {"tested_on": "corneal epithelium", "assay": "Action on corneal epithelium migration (in vitro), corneal organ culture system", "type": "cell-based, Japanese white rabbit", "details": "rabbit corneal blocks incubated 20 hours in Medium-199 with test compound; FIG. 1, 51.2-512.3 nM; vs control", "experimental": "(1) Action on Corneal Epithelium Migration (In Vitro)\nUsing the cornea of male Japanese white rabbits, the effects on corneal epithelium migration were examined using the migrating length of the corneal epithelium in a corneal organ culture system as an index in accordance with the method of Nishida et al. (J. Cell. Biol., 97, pp. 1653-1657 (1983)).\nCorneal blocks (three per group) were cut out from rabbit corneal tissue. These corneal blocks were incubated for 20 hours under the conditions of 37° C. and 5% CO2 in a culture medium (Medium-199) containing the test compound. After incubation, the corneal blocks were fixed in a mixed solution of ethanol and glacial acetic acid (volume ratio of 95:5), embedded in paraffin, and prepared as sections. After deparaffination, the sections were stained with hematoxylin-eosin and the migrating length of the epithelial cell layer was measured under a microscope."}, "[2]": {"tested_on": "rabbit corneal wound model", "assay": "Corneal wound healing promotion action 1 (in vivo), approx. 6 mm corneal epithelial abrasion", "parameters": "species or system Japanese white rabbit", "experimental": "(2) Corneal Wound Healing Promotion Action 1 (In Vivo)\nUsing a male Japanese white rabbit, a wound of approximately 6 mm in diameter was produced in the cornea by inducing corneal epithelial abrasion in accordance with the method of Cintron et al. (Ophthalmic Res., 11, pp. 90-96 (1979)). The wound area was measured using the fluorescein-stained area as an index. The effects of the test compound on corneal wound healing were examined.\nThe eye drops containing the respective concentrations of the test compound were instilled (30 μl at a time) at 0, 3, 6, 9, 12, 18, 24, 27, 30, 33, 36, 42, and 48 hours after inducing corneal epithelial abrasion. In measuring the wound area, fluorescein staining was carried out and a photograph of the cornea was measured. The fluorescein-stained area of the photographed cornea was computed using an image analysis processing system.\n(§1) In Tables 1 and 2, the respective values indicate the mean value±standard deviation (n=6). Statistical analysis was carried out using Dunnett's multiple comparison with respect to PBS with the area of the corneal wound portion immediately after (0 hours after) corneal epithelial abrasion being set to 100% (*p<0.05, ** p<0.01; vs. control)."}, "[3]": {"tested_on": "rabbit corneal wound model", "assay": "Corneal wound healing promotion action 2 (in vivo), approx. 8 mm corneal epithelial abrasion", "parameters": "species or system Japanese white rabbit", "experimental": "(3) Corneal Wound Healing Promotion Action 2 (In Vivo)\nUsing the same method as (2) above, corneal epithelial abrasion was induced in a Japanese white rabbit to produce a wound of approximately 8 mm in diameter in the cornea. The wound area was measured using the fluorescein-stained area as an index to examine the effects on corneal wound healing.\nThe eye drops containing the respective concentrations of the test compound were instilled (25 μl at a time) at 0, 6, 12, 18, 24, 30, 36, 42, 48, and 54 hours after induction corneal epithelial abrasion. In measuring the wound area, fluorescein staining was carried out and a photograph of the cornea was measured. The fluorescein-stained area of the photographed cornea was computed using an image analysis processing system.\nas §1, with “Tables 3” for “Tables 1”, “and 4,” for “and 2,”, “to physiological saline” for “to PBS”"}}}
{"substance": "Ac-Pro-His-Ser-Arg-Asn-NH2 (Ac-PHSRN-NH2) [PHSRN (SEQ ID NO: 1)]", "values": [{"measurement": "migration of corneal epithelium (migrating length of epithelial cell layer)", "setting": "[1]", "result": "significant promotion"}, {"measurement": "Healing ratio (%)", "setting": "[2]; 2 μM eye drop, 0 hr (baseline)", "result": 0, "unit": "%"}, {"measurement": "Healing ratio (%)", "setting": "[2]; 2 μM eye drop, 6 hr", "result": "9.66 ± 2.21", "unit": "%"}, {"measurement": "Healing ratio (%)", "setting": "[2]; 2 μM eye drop, 12 hr", "result": "26.71 ± 2.62", "unit": "%"}, {"measurement": "Healing ratio (%)", "setting": "[2]; 2 μM eye drop, 24 hr", "result": "61.91 ± 3.08", "unit": "%"}, {"measurement": "Healing ratio (%)", "setting": "[2]; 2 μM eye drop, 36 hr", "result": "88.08 ± 4.03", "unit": "%"}, {"measurement": "Healing ratio (%)", "setting": "[2]; 2 μM eye drop, 48 hr", "result": "99.14 ± 1.90", "unit": "%"}, {"measurement": "Healing ratio (%)", "setting": "[2]; 20 μM eye drop, 0 hr (baseline)", "result": 0, "unit": "%"}, {"measurement": "Healing ratio (%)", "setting": "[2]; 20 μM eye drop, 6 hr", "result": "10.73 ± 3.21", "unit": "%"}, {"measurement": "Healing ratio (%)", "setting": "[2]; 20 μM eye drop, 12 hr", "result": "28.01 ± 1.92", "unit": "%"}, {"measurement": "Healing ratio (%)", "setting": "[2]; 20 μM eye drop, 24 hr", "result": "64.07 ± 3.98", "unit": "%"}, {"measurement": "Healing ratio (%)", "setting": "[2]; 20 μM eye drop, 36 hr", "result": "89.09 ± 6.42", "unit": "%"}, {"measurement": "Healing ratio (%)", "setting": "[2]; 20 μM eye drop, 48 hr", "result": "99.15 ± 1.52", "unit": "%"}, {"measurement": "Healing ratio (%)", "setting": "[2]; 200 μM eye drop, 0 hr (baseline)", "result": 0, "unit": "%"}, {"measurement": "Healing ratio (%)", "setting": "[2]; 200 μM eye drop, 6 hr", "result": "11.06 ± 3.50", "unit": "%"}, {"measurement": "Healing ratio (%)", "setting": "[2]; 200 μM eye drop, 12 hr", "result": "28.69 ± 4.10", "unit": "%"}, {"measurement": "Healing ratio (%)", "setting": "[2]; 200 μM eye drop, 24 hr", "result": "67.70 ± 5.37", "unit": "%"}, {"measurement": "Healing ratio (%)", "setting": "[2]; 200 μM eye drop, 36 hr", "result": "94.97 ± 4.63", "unit": "%"}, {"measurement": "Healing ratio (%)", "setting": "[2]; 200 μM eye drop, 48 hr", "result": "100.00 ± 0.00", "unit": "%"}, {"measurement": "Healing ratio (%)", "setting": "[2]; 2000 μM eye drop, 0 hr (baseline)", "result": 0, "unit": "%"}, {"measurement": "Healing ratio (%)", "setting": "[2]; 2000 μM eye drop, 6 hr", "result": "11.15 ± 1.25", "unit": "%"}, {"measurement": "Healing ratio (%)", "setting": "[2]; 2000 μM eye drop, 12 hr", "result": "28.99 ± 2.65", "unit": "%"}, {"measurement": "Healing ratio (%)", "setting": "[2]; 2000 μM eye drop, 24 hr", "result": "69.49 ± 3.17", "unit": "%"}, {"measurement": "Healing ratio (%)", "setting": "[2]; 2000 μM eye drop, 36 hr", "result": "95.39 ± 3.06", "unit": "%"}, {"measurement": "Healing ratio (%)", "setting": "[2]; 2000 μM eye drop, 48 hr", "result": "100.00 ± 0.00", "unit": "%"}, {"measurement": "promotion of wound healing", "setting": "[2]; instillation of eye drops, 6 mm wound, vs PBS", "result": "significant promotion of wound healing"}, {"measurement": "Healing ratio (%)", "setting": "[3]; 0.04% eye drop, 0 hr (baseline)", "result": 0, "unit": "%"}, {"measurement": "Healing ratio (%)", "setting": "[3]; 0.04% eye drop, 12 hr", "result": "13.57 ± 3.74", "unit": "%"}, {"measurement": "Healing ratio (%)", "setting": "[3]; 0.04% eye drop, 18 hr", "result": "29.45 ± 3.29", "unit": "%"}, {"measurement": "Healing ratio (%)", "setting": "[3]; 0.04% eye drop, 24 hr", "result": "58.71 ± 6.32", "unit": "%"}, {"measurement": "Healing ratio (%)", "setting": "[3]; 0.04% eye drop, 30 hr", "result": "58.71 ± 6.32", "unit": "%"}, {"measurement": "Healing ratio (%)", "setting": "[3]; 0.04% eye drop, 36 hr", "result": "70.29 ± 8.38", "unit": "%"}, {"measurement": "Healing ratio (%)", "setting": "[3]; 0.04% eye drop, 48 hr", "result": "88.27 ± 8.74", "unit": "%"}, {"measurement": "Healing ratio (%)", "setting": "[3]; 0.04% eye drop, 54 hr", "result": "94.24 ± 6.62", "unit": "%"}, {"measurement": "Healing ratio (%)", "setting": "[3]; 0.04% eye drop, 72 hr", "result": "98.93 ± 2.16", "unit": "%"}, {"measurement": "promotion of wound healing", "setting": "[3]; instillation of eye drops, 8 mm wound, vs physiological saline", "result": "significant promotion of wound healing"}]}
{"substance": "hyaluronic acid [reference compound]", "values": [{"measurement": "Healing ratio (%)", "setting": "[3]; 0.3% eye drop, 0 hr (baseline)", "result": 0, "unit": "%"}, {"measurement": "Healing ratio (%)", "setting": "[3]; 0.3% eye drop, 12 hr", "result": "13.98 ± 4.88", "unit": "%"}, {"measurement": "Healing ratio (%)", "setting": "[3]; 0.3% eye drop, 18 hr", "result": "28.45 ± 3.37", "unit": "%"}, {"measurement": "Healing ratio (%)", "setting": "[3]; 0.3% eye drop, 24 hr", "result": "60.78 ± 8.07", "unit": "%"}, {"measurement": "Healing ratio (%)", "setting": "[3]; 0.3% eye drop, 30 hr", "result": "60.78 ± 8.07", "unit": "%"}, {"measurement": "Healing ratio (%)", "setting": "[3]; 0.3% eye drop, 36 hr", "result": "71.62 ± 11.02", "unit": "%"}, {"measurement": "Healing ratio (%)", "setting": "[3]; 0.3% eye drop, 48 hr", "result": "90.19 ± 9.51", "unit": "%"}, {"measurement": "Healing ratio (%)", "setting": "[3]; 0.3% eye drop, 54 hr", "result": "95.35 ± 6.44", "unit": "%"}, {"measurement": "Healing ratio (%)", "setting": "[3]; 0.3% eye drop, 72 hr", "result": "99.92 ± 0.22", "unit": "%"}]}
